Experimental data from patent US6875758B2, “Method of treating hyperlipidemic and hyperglycemic conditions in mammals using pregnadienols and pregnadienones” (Council of Scientific & Industrial Research, priority 1999, dated 2005).

How the values were obtained:
[1] = system: Triton treated rats; test: Cholesterol lowering in Triton treated rats; format: in vivo, Charles Foster rats; settings: Rattus norvegicus, ip; 50 mg/kg i.p.; read-out: % Change S. Chol.
Source text: The primary hypolipidemic effect of these compounds was established in triton induced hyperlipidemia in Charles Foster rats. […] The cholesterol lowering effect of some representative compounds of pregrenadienols and pregrenadienones as compared to clofibrate and gugulsterone in triton treated Charles Foster rats is described in Table-2.

[2] = system: normal rats; test: Hypolipidemic activity in normal rats; format: in vivo; settings: 50 mg/kg
Description: In normal rats, 3β-hydroxypregna-5,16-dien-20one (2), at 50 mg/kg produced a significant lowering of serum cholesterol and triglycerides as describe in Table-3 below.

[3] = system: hyperlipidemic rats (high fat diet); test: Hypolipidemic activity in diet induced hyperlipidemic rats; format: in vivo; settings: for LDL-Cholesterol: calculated
Description: Twenty three normal male rats average weight 110-120 g were taken for study and were divided into four groups. Group l: animals received special diet and 3β-hydroxypregna-5,16-dien-20-one (2) 50 mg/kg p.o. in 1% gum acacia. Group II: animals received 3β-hydroxypregna-5,16-dien-20-one (2), 100 mg/kg p.o. in 1% gum acacia and special diet. Group III: animals received special fat diet and 1% gum acacia and served as control. Group IV: animals were fed with stock diet and served as normal control. All animals were sacrificed at the end of 36 days. Blood was drawn from the tail at 10 days and from the aorta at the time of sacrifice for estimation of serum cholesterol, triglycerides and HDL-cholesterol. LDL-cholesterol was calculated as described. [Roschlau, P. In: Methods of Enzymatic Analysis 4th ed., H. U. Bergmeyer, Ed (Academic Press, New York) 1975 p 1890; Wahlefield, W. A. In: Methods of Enzymatic Analysis, 4th ed.; H. U. Bergmeyer, Ed. (Academic Press, New York) 1974 p 1831.]

[4] = system: Rhesus monkeys; test: Hypolipidemic activity in Rhesus monkeys; format: in vivo; settings: for S. Triglycerides % Fall: day 60 vs day 0; for HDL-Cholesterol % Change / LDL-Cholesterol % Fall / S. Cholesterol % Fall: day 90 vs day 0
Description: In Rhesus monkeys: 3β-Hydroxypregna-5,16-dien-20one (2) was administered orally daily for 90 days in doses of 62.5, 125 or 650 mg/kg to different group of animals. Significant decrease in serum cholesterol was observed (45-52%).

[5] = system: cholesterol fed hyperlipidemic rats; test: Lipid peroxidation in cholesterol fed hyperlipidemic rats; format: in vivo
[6] = Hydroxy (OH) radical formation in nonenzymatic system (Fe2+, ascorbate, H2O2, deoxyribose); format: biochemical
[7] = system: endometrial proliferation; test: Clauberg assay, endometrial proliferation on McPhail scale; format: in vivo; settings: 200 mg/kg dose
Description: The progestational activity was also tested in vivo by Clauberg assay method. The degree of endometrial proliferation was estimated on the McPhail scale where 3′ or 4′ was considered as a full progestational effect.

[8] = 62.5, 125 or 650 mg/kg orally daily for 90 days

SMILES: CC(=O)C1=CC[C@H]2[C@@H]3CC=C4C[C@@H](O)CC[C@]4(C)[C@H]3CC[C@]12C [Compound 2, 3β-Hydroxypregna-5,16-dien-20-one]
- change in vivo at 50 mg/kg [1]: -46%
- Serum Cholesterol ([2]; 0 Days): 71.5 ± 1.8 mg %
- Serum Cholesterol ([2]; 30 Days): 43.2 ± 2.9 mg %
- Serum Cholesterol % Fall ([2]; 30 Days): 40%
- Serum Triglycerides ([2]; 30 Days): 42.0 ± 2.8 mg %
- Serum Triglycerides % Fall compared to control ([2]; 30 Days): 35%
- HDL-Cholesterol ([3]; 50 mg/kg + HFD, Day 0): 34.8 ± 5.8 mg %
- LDL-Cholesterol ([3]; 50 mg/kg + HFD, Day 0): 24.5 ± 14.2 mg %
- HDL-Cholesterol ([3]; 50 mg/kg + HFD, Day 36): 37.57 ± 2.8 mg %
- HDL-Cholesterol % Change ([3]; 50 mg/kg + HFD, Day 36): 181%
- LDL-Cholesterol ([3]; 50 mg/kg + HFD, Day 36): 123.87 ± 14.0 mg %
- Serum Cholesterol ([3]; 50 mg/kg p.o. + HFD, day 0): 69.1 ± 9.9 mg %
- Serum Triglycerides ([3]; 50 mg/kg p.o. + HFD, day 0): 48.8 ± 7.0 mg %
- Serum Cholesterol ([3]; 50 mg/kg p.o. + HFD, day 10): 212.4 ± 23.8 mg %
- Serum Cholesterol % Decrease (compared to group III, HFD) ([3]; 50 mg/kg p.o. + HFD, day 10): 16%
- Serum Cholesterol ([3]; 50 mg/kg p.o. + HFD, day 36): 165 ± 26.7 mg %
- Serum Cholesterol % Decrease (compared to group III, HFD) ([3]; 50 mg/kg p.o. + HFD, day 36): 31%
- Serum Triglycerides ([3]; 50 mg/kg p.o. + HFD, day 36): 61.5 ± 10.5 mg %
- Serum Triglycerides % Decrease (compared to group III, HFD) ([3]; 50 mg/kg p.o. + HFD, day 36): 55%
- HDL-Cholesterol ([3]; 100 mg/kg + HFD, Day 0): 43.4 ± 8.3 mg %
- LDL-Cholesterol ([3]; 100 mg/kg + HFD, Day 0): 10.02 ± 8.5 mg %
- HDL-Cholesterol ([3]; 100 mg/kg + HFD, Day 36): 47.2 ± 3.7 mg %
- HDL-Cholesterol % Change ([3]; 100 mg/kg + HFD, Day 36): 161%
- LDL-Cholesterol ([3]; 100 mg/kg + HFD, Day 36): 48.64 ± 5.1 mg %
- Serum Cholesterol ([3]; 100 mg/kg p.o. + HFD, day 0): 60.8 ± 10.3 mg %
- Serum Triglycerides ([3]; 100 mg/kg p.o. + HFD, day 0): 50 ± 7.1 mg %
- Serum Cholesterol ([3]; 100 mg/kg p.o. + HFD, day 10): 145.5 ± 10.6 mg %
- Serum Cholesterol % Decrease (compared to group III, HFD) ([3]; 100 mg/kg p.o. + HFD, day 10): 48%
- Serum Cholesterol ([3]; 100 mg/kg p.o. + HFD, day 36): 106.4 ± 4.6 mg %
- Serum Cholesterol % Decrease (compared to group III, HFD) ([3]; 100 mg/kg p.o. + HFD, day 36): 59%
- Serum Triglycerides ([3]; 100 mg/kg p.o. + HFD, day 36): 53.0 ± 7.5 mg %
- Serum Triglycerides % Decrease (compared to group III, HFD) ([3]; 100 mg/kg p.o. + HFD, day 36): 62%
- S. Cholesterol ([4]; 62.5 mg/kg orally daily, day 0): 156.8 ± 23.0 mg/dL
- S. Triglycerides ([4]; 62.5 mg/kg orally daily, day 0): 77.5 ± 7.0 mg/dL
- S. Triglycerides ([4]; 62.5 mg/kg orally daily, day 60): 66.3 ± 6.9 mg/dL
- S. Cholesterol ([4]; 62.5 mg/kg orally daily, day 90): 83.3 ± 8.5 mg/dL
- HDL-Cholesterol ([4]; 62.5 mg/kg, day 0): 50.0 ± 4.5 mg/dL
- LDL-Cholesterol ([4]; 62.5 mg/kg, day 0): 91.8 ± 27.0 mg/dL
- S. Triglycerides % Fall ([4]; 62.5 mg/kg): 14%
- HDL-Cholesterol ([4]; 62.5 mg/kg, day 90): 45.0 ± 2.5 mg/dL
- LDL-Cholesterol ([4]; 62.5 mg/kg, day 90): 24.3 ± 8.0 mg/dL
- HDL-Cholesterol % Change ([4]; 62.5 mg/kg): −8%
- LDL-Cholesterol % Fall ([4]; 62.5 mg/kg): 75%
- S. Cholesterol % Fall ([4]; 62.5 mg/kg): 47%
- S. Cholesterol ([4]; 125 mg/kg orally daily, day 0): 133.3 ± 8.5 mg/dL
- S. Triglycerides ([4]; 125 mg/kg orally daily, day 0): 69.8 ± 9.9 mg/dL
- S. Triglycerides ([4]; 125 mg/kg orally daily, day 60): 60.0 ± 2.9 mg/dL
- S. Cholesterol ([4]; 125 mg/kg orally daily, day 90): 65.8 ± 2.2 mg/dL
- HDL-Cholesterol ([4]; 125 mg/kg, day 0): 46.3 ± 2.0 mg/dL
- LDL-Cholesterol ([4]; 125 mg/kg, day 0): 63.5 ± 7.4 mg/dL
- S. Triglycerides % Fall ([4]; 125 mg/kg): 13%
- HDL-Cholesterol ([4]; 125 mg/kg, day 90): 50.8 ± 0.5 mg/dL
- LDL-Cholesterol ([4]; 125 mg/kg, day 90): 4.6 ± 0.9 mg/dL
- HDL-Cholesterol % Change ([4]; 125 mg/kg): +10%
- LDL-Cholesterol % Fall ([4]; 125 mg/kg): 90%
- S. Cholesterol % Fall ([4]; 125 mg/kg): 50%
- S. Cholesterol ([4]; 650 mg/kg orally daily, day 0): 132.8 ± 6.4 mg/dL
- S. Triglycerides ([4]; 650 mg/kg orally daily, day 0): 90.5 ± 3.9 mg/dL
- S. Triglycerides ([4]; 650 mg/kg orally daily, day 60): 58.5 ± 3.8 mg/dL
- S. Cholesterol ([4]; 650 mg/kg orally daily, day 90): 63.3 ± 2.3 mg/dL
- HDL-Cholesterol ([4]; 650 mg/kg, day 0): 39.3 ± 1.3 mg/dL
- LDL-Cholesterol ([4]; 650 mg/kg, day 0): 72.7 ± 8.4 mg/dL
- S. Triglycerides % Fall ([4]; 650 mg/kg): 36%
- HDL-Cholesterol ([4]; 650 mg/kg, day 90): 41.8 ± 0.9 mg/dL
- LDL-Cholesterol ([4]; 650 mg/kg, day 90): 13.1 ± 0.7 mg/dL
- HDL-Cholesterol % Change ([4]; 650 mg/kg): +6%
- LDL-Cholesterol % Fall ([4]; 650 mg/kg): 82%
- S. Cholesterol % Fall ([4]; 650 mg/kg): 53%
- changes in HDL-cholesterol [4, 8]: not significant
- decrease in low density lipoprotein [4, 8]: 75-90%
- decrease in serum cholesterol [4, 8]: 45-52%
- HDL lipid peroxides ([5]; cholesterol + drug 25 mg/kg): 125 ± 10 n mol MDA/dl
- HDL lipid peroxides % reversal as compared with cholesterol fed rats ([5]; cholesterol + drug 25 mg/kg): (−9) %
- LDL lipid peroxides ([5]; cholesterol + drug 25 mg/kg): 421 ± 20 n mol MDA/dl
- LDL lipid peroxides % reversal as compared with cholesterol fed rats ([5]; cholesterol + drug 25 mg/kg): (−30) %
- Liver lipid peroxides ([5]; cholesterol + drug 25 mg/kg): 212 ± 16 n mol MDA/g
- Liver lipid peroxides % reversal as compared with cholesterol fed rats ([5]; cholesterol + drug 25 mg/kg): (−23) %
- Serum lipid peroxides ([5]; cholesterol + drug 25 mg/kg): 931.5 ± 51 n mol MDA/dl
- Serum lipid peroxides % reversal as compared with cholesterol fed rats ([5]; cholesterol + drug 25 mg/kg): (−24) %
- VLDL lipid peroxides ([5]; cholesterol + drug 25 mg/kg): 310 ± 15 n mol MDA/dl
- VLDL lipid peroxides % reversal as compared with cholesterol fed rats ([5]; cholesterol + drug 25 mg/kg): (−18) %
- lipid peroxide levels in serum VLDL, LDL and liver (in words) ([5]; cholesterol fed animals, simultaneous treatment): significant reversal
- generation of OH radical (in words) [6]: inhibits the generation of OH radical in concentration dependent manner
- % inhibition of OH radical formation ([6]; 5 μmol/ml): (28) %
- OH radical formation ([6]; 5 μmol/ml): 65.0 ± 5.4 nmol MDA/hr
- % inhibition of OH radical formation ([6]; 10 μmol/ml): (42) %
- OH radical formation ([6]; 10 μmol/ml): 52.8 ± 4.2 nmol MDA/hr
- % inhibition of OH radical formation ([6]; 20 μmol/ml): (74) %
- OH radical formation ([6]; 20 μmol/ml): 23.3 ± 1.8 nmol MDA/hr
- % inhibition of OH radical formation ([6]; 30 μmol/ml): (87) %
- OH radical formation ([6]; 30 μmol/ml): 11.7 ± 1.3 nmol MDA/hr
- % inhibition of OH radical formation ([6]; 40 μmol/ml): (88) %
- OH radical formation ([6]; 40 μmol/ml): 10.4 ± 2.0 nmol MDA/hr
- % inhibition of OH radical formation ([6]; 50 μmol/ml): (90) %
- OH radical formation ([6]; 50 μmol/ml): 9.9 ± 0.8 nmol MDA/hr
- progestational activity [7]: did not exhibit any activity
